We go through 1 compound from patent US8586719B2, “Triterpenes for modulating gene expression and cell membrane, and as antiprotozoal agents” (Pacific Arrow Limited, priority 2005, dated 2013).

The subject of test [1] is tumor bearing mice. Description: Animal studies in tumor bearing mice. The test is classed as in vivo. The source says: (Reference Experiments 7, 8, 9 in U.S. Ser. Nos. 11/683,198, filed on Mar. 7, 2007,). The animals died sooner if the treatment of Xanifolia-Y was delayed (comparing results of treatments started from 1, 4 or 10 days after tumor inoculation). […] Ovarian carcinoma cells express high levels of adhesion molecules. Adhesion proteins are present in both cancer cells and mesothelial cells. While the lost of adhesion blocks of the protein accessibility due to a result of modulating by Xanifolia-Y, In an embodiment, the interaction of Xanifolia-Y with membrane alter the adhesion protein's binding site(s).

Test [2] concerns insulin-like growth factor binding protein 1 (IGFBP1). The test can be described thus: Microarray gene expression in ES2 cells: IGFBP1. The test is classed as cell-based, human. Particulars: probe set 205302_at. The source says: (§1) The composition comprises bioactive compounds from natural plants or synthesis. The majority of the plants are from the Sapindaceae family, which has 140-150 genera with 1400-2000 species. The program is based on our purification methods and biological assays including the MTT assay See International Application No. PCT/US05/31900, filed Sep. 7, 2005, U.S. Ser. No. 11/289,142, filed Nov. 28, 2005, and U.S. Ser. No. 11/131,551, filed May 17, 2005, and PCT/US2008/002086, 1188-ALA-PCT, filed Feb. 15, 2008, the contents of which are incorporated herein by reference. The details of Analysis of gene expression of ES2 cells after Y-treatment by Microarray, Data Analysis Methods and Western blot in PCT/US2008/002086, 1188-ALA-PCT, filed Feb. 15, 2008, the contents of which are incorporated herein by reference

Test [3] concerns regulator of G-protein signalling 4 (RGS4). Description: Microarray gene expression in ES2 cells: regulator of G-protein. The test is classed as cell-based, human.
Text: as §1

The subject of test [4] is dual specificity phosphatase 10 (DUSP10). Description: Microarray gene expression in ES2 cells: DUSP10. The class given is cell-based, human.
Text: as §1

For test [5], the system named is insulin-like growth factor binding protein 7 (IGFBP7). The test can be described thus: Microarray gene expression in ES2 cells: IGFBP7. The class given is cell-based, human. Particulars: probe set 201163_s_at.
Text: as §1

The subject of test [6] is Fibronectin. Description: Fibronectin secretion from ES2 cells. The class given is cell-based, human. The protocol: (§2) Reduction of Fibronectin secretion from ES2 cells after xanifolia-Y treatment. • (Results of F1, F3, F4, F5, F7, F8, F11, F12A, F15, F16, F17) Data in PCT/US2008/002086, 1188-ALA-PCT, filed Feb. 15, 2008 are incorporated herein by reference • (F11) For lung carcinoma cells (H460), at concentration of 20 ug/ml, there are inhibitions of Fibronectin secretion ranged from 20-60%. • (F12A) For bladder carcinoma cells (HTB-9), Xanifolia-Y (10 ug/ml) inhibits 50% of Fibronectin secretion. • (F15) In liver HepG2 cells. 10 ug/ml of xanifolia-Y inhibits 42% secretion of Fibronectin. • (F16) Incubation of brain glioblastoma T98G cells with 10 ug/ml of xanifolia-Y inhibits 27% Fibronectin secretion and with 20 ug/ml Y inhibits 74% Fibronectin secretion. • (F17) For skin SK-MeI-5 cells, the inhibition is 40-57% with 20 ug/ml of Xanifolia-Y.

In test [7] the test system is Fibronectin. Description: Fibronectin secretion, skin SK-MEL-5 cells. The test is classed as cell-based, human. Particulars: Homo sapiens, SK-MEL-5; skin SK-MeI-5 cells; 20 ug/ml. How it is done:
as §2

Test [8] concerns angiopoietin 2. The test can be described thus: Microarray gene expression in ES2 cells: angiopoietin 2. The test is classed as cell-based, human. As to conditions: micro array.
Text: as §1
Angiogenesis is a process involving the growth of new blood vessels. It is a normal process in growth and development. However, this is also a fundamental step in the transition of tumors from a dormant state to a malignant state. The angiopoietins are protein growth factors that modulate angiogenesis. […]

For test [9], the system named is thrombospondin 1 (THBS1). The test can be described thus: Microarray gene expression in ES2 cells: thrombospondin. The class given is cell-based, human.
Text: as §1

For orientation: inhibition means the share of the control response that was lost under treatment. For `C/C=C(/C)C(=O)O[C@H]1[C@H](OC(=O)/C(C)=C\C)[C@@]2(CO)C(CC1(C)C)C1=CCC3[C@@]4(C)CC[C@H](O[C@@H]5OC(C(=O)O)[C@@H](O)[C@@H](O[C@@H]6O[C@@H](CO)[C@@H](O)C6O)C5O[C@@H]5OC(CO)[C@H](O)[C@@H](O)C5O)C(C)(C)C4CC[C@@]3(C)[C@]1(C)[C@@H](O)[C@H]2O` (stereo partly drawn) [Y, 3-O-[β-D-galactopyranosyl(1→2)]-α-L-arabinofuranosy (1→3)-β-D-glucuronopyranosyl-21,22-O-diangeloyl-3β, 15α, 16α, 21β, 22α, 28-hexahydroxyolean-12-ene], the “life span of tumor bearing mice” value in [1] (Experiments 7, 8, 9 of U.S. Ser. No. 11/683,198) is “extended the life span”. In addition, in test [1] (treatment started 1, 4 or 10 days after tumor inoculation), the “migration or metastasis of the inoculated cancer cells” value is “inhibits migration or metastasis”. In [2], the “IGFBP1 expression, treated/D (DMSO control)” value was −1.7. For the same compound, the results for the “RGS4 expression, treated/D (DMSO control)” value in test [3] (probe set 204337_at), in test [3] (probe set 204338_s_at) and in test [3] (probe set 204339_s_at) were −3.4, −2.5 and −3.5, respectively. Moreover, the “DUSP10 expression (given as Y/D, YM/D)” value in [4] (215501_s_at) was determined as 3.2; in test [4] (221563_at), 3.8. The “IGFBP7 expression, treated/D (DMSO control)” value in test [5] is −1.4. The “Fibronectin secretion from ES2 cells” value in [6] was “Reduction”. Also, the inhibition at 20 µg/mL in test [7] lay within 40 to 57%. For the same compound, in test [8], the “gene expression of angiopoietin 2” value was “promote”. The “THBS1 expression, treated/D (DMSO control)” value in test [9] (probe set 201108_s_at) was −1.7; in [9] (probe set 201109_s_at), −2.0; in test [9] (probe set 201110_s_at), −1.8.
